The values below come from patent publication US8329751B2, “Compounds having aryl-sulphonamidic structure useful as metalloproteases inhibitors” (Bracco Imaging S.p.A., priority 2007, dated 2012).

One test has as its target T1, MMP-2 (Homo sapiens, UniProt P08253).
T1 construct: supplied by Prof; Gillian Murphy (Department of Oncology, University of Cambridge, UK); not a commercial purchase
T1 sequence (P08253 110-660): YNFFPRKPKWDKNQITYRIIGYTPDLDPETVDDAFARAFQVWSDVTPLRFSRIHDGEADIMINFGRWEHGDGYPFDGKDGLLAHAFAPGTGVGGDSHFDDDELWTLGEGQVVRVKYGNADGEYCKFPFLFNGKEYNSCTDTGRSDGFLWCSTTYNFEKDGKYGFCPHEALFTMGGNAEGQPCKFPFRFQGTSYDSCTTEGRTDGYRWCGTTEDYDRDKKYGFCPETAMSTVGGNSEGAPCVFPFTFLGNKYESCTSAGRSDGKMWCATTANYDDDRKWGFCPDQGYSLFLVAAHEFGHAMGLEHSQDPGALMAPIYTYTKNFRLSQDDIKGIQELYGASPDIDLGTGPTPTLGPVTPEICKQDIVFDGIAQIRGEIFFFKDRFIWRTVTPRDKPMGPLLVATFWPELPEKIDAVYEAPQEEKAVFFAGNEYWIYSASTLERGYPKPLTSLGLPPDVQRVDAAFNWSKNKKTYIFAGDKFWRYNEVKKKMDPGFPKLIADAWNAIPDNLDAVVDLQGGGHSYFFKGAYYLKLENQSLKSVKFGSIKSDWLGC
Briefly: MMP inhibition assay, fluorogenic substrate FS-6, MMP-2. Type of test: biochemical. The conditions noted are these: substrate FS-6 2 μM; enzyme and inhibitor incubated 4 h at 25° C. Here is the method:
(§1) As reported therein, the inhibitory activity of the compounds of the invention was evaluated on the known fluorogenic substrate (Mca-Lys-Pro-Leu-Gly-Leu-Dpa-Ala-Arg-NH2), shortly referred to as FS-6 (see, as a reference, U. Neumann, Analytical Biochem. 2004, 328, 166-173).
(§2) Recombinant human pro-MMP-2 was supplied by Prof. Gillian Murphy (Department of Oncology, University of Cambridge, UK), while pro-MMP-13 and pro-MMP-14 were purchased from Calbiochem. […] Pro-MMP-14 was activated with trypsin 5 μg/ml for 15 min at 37° C. followed by soybean trypsin inhibitor (SBTI) 23, μg/ml. For assay measurements, the inhibitor stock solutions (DMSO, 100 mM) were further diluted, at seven different concentrations (0.01 nM-100 μM) for each MMP in the fluorimetric assay buffer (FAB: Tris 50 mM, pH=7.5, NaCl 150 mM, CaCl2 10 mM, Brij 35 0.05% and DMSO 1%). Activated enzyme (final concentration 2.9 nM for MMP-2, 1 nM for MMP-14, 0.33 nM for MMP-13) and inhibitor solutions were incubated in the assay buffer for 4 h at 25° C. After the addition of 200 μM solution of the fluorogenic substrate Mca-Lys-Pro-Leu-Gly-Leu-Dpa-Ala-Arg-NH2 (Bachem) (see, for a reference, Neumann, U.; Kubota, H.; Frei, K.; Ganu, V.; Leppert, D. Anal. Biochem. 2004, 328, 166) for all of the enzymes in DMSO (final concentration 2 μM), the hydrolysis was monitored every 15 sec. for 20 min recording the increase in fluorescence (λex=325 nm, λem=395 nm) using a Molecular Device SpectraMax Gemini XS plate reader.
(§3) The assays were performed in triplicate, in a total volume of 200 μl per well, in 96-well microtitre plates (Corning, black, NBS). Control wells lack inhibitor. The MMP inhibition activity was expressed in relative fluorescent units (RFU). Percent of inhibition was calculated from control reactions without the inhibitor. IC50 was determined using the formula: Vi/Vo=1/(1+[I]/IC50), where V, is the initial velocity of substrate cleavage in the presence of the inhibitor at concentration [I] and Vo is the initial velocity in the absence of the inhibitor. Results were analyzed using SoftMax Pro software and GraFit software.

The target in the next test is T2, MMP-14 (Homo sapiens, UniProt P50281).
T2 construct: purchased Calbiochem
Briefly: MMP inhibition assay, fluorogenic substrate FS-6, MMP-14. It counts as biochemical. The conditions noted are these: substrate FS-6 2 μM; enzyme and inhibitor incubated 4 h at 25° C. The protocol:
as §1, §2, §3

The next test deals with MMP-13 (Homo sapiens, UniProt P45452). Briefly: MMP inhibition assay, fluorogenic substrate FS-6, MMP-13. It counts as biochemical. The conditions noted are these: substrate FS-6 2 μM; enzyme and inhibitor incubated 4 h at 25° C. Here is the method:
as §1, §2, §3

Test [1] concerns HUVEC. Briefly: HUVEC chemoinvasion in Boyden chambers. Type of test: cell-based, human. To be noted: 100 μM, 5 hours. The protocol: Compound (2), as a representative compound of the invention, was tested in an in vivo assay to evaluate its inhibitory activity on cancer cells. In particular, HUVEC cultures were purchased from Cascade Biologics (Portland, Oreg.) and cultured in gelatin-coated flasks using M199, 10% FCS (Fetal Calf Serum, Seromed, Milan, Italy) supplemented with FGF (Fibroblast Growth Factor, PeproTech, Inc., Rocky Hill, […] (acidic Fibroblast Growth Factor)+1 μg bFGF (basic Fibroblast Growth Factor)/100 ml medium), EGF (Epidermal Growth Factor) (1 μg/100 ml medium), heparin (10 mg/100 ml medium), (ICN Pharmaceuticals, Inc., […].), hydrocortisone (Sigma Chemical Co.) (0.1 mg/100 ml medium). HUVEC invasion was assessed in Boyden chambers (Costar) using serum-free fibroblast conditioned medium (FB-CM) as chemoattractants. Cells were treated with the inhibitor at the indicated doses and incubated at 37° C. for 5 hours in humidified atmosphere. Cell invasion was assessed by densitometric scanning of whole filter surface. Each test was performed in triplicate and repeated three times [see, for a reference, Albini, A., et al., Int. J. Dev. Biol., (2004), 48, 563-71].

The test system of test [2] is HUVEC. Briefly: HUVEC growth assay (crystal violet). It counts as cell-based, human. The protocol:
Compound (2), as a representative compound of the invention, was tested in an in vivo assay to evaluate its inhibitory activity on cancer cells. In particular, HUVEC cultures were purchased from Cascade Biologics (Portland, Oreg.) and cultured in gelatin-coated flasks using M199, 10% FCS (Fetal Calf Serum, Seromed, Milan, Italy) supplemented with FGF (Fibroblast Growth Factor, PeproTech, Inc., Rocky Hill, N.J.) (1 μg aFGF (acidic Fibroblast Growth Factor)+1 μg bFGF (basic Fibroblast Growth Factor)/100 ml medium), EGF (Epidermal Growth Factor) (1 μg/100 ml medium), heparin (10 mg/100 ml medium), (ICN Pharmaceuticals, Inc., Casta Mesa, Calif.), hydrocortisone (Sigma Chemical Co.) (0.1 mg/100 ml medium).
At day 0 cells were plated in 96 microwell plates at 1000 cells in 200 μl of complete culture medium. The inhibitor was added to the cells at different concentrations (10, 100 μM). HUVEC were quantified at 24, 48 and 72 hrs. Indirect optical density (OD) quantification was obtained fixing/staining the cells for 20 minutes with a crystal violet solution [see, for a reference, Fassina, G. et al., Clin Cancer Res, (2004) 10, 4865-73].

The subject of test [3] is HUVEC. Briefly: pro-apoptotic activity on HUVEC. Type of test: cell-based, human.

Each structure is given as a SMILES string.

In the case of `CC(C)ON([C@H](CCNC(=O)c1ccccc1)C(=O)NO)S(=O)(=O)c1ccc(-c2ccccc2)cc1` [Compound 1b, (R)—N-(4-(hydroxyamino)-3-(N-isopropoxybiphenyl-4-ylsulfonamido)-4-oxobutyl)benzamide], the results for the IC50 against MMP-2, against MMP-14 and at MMP-13 were 1.48 ± 0.17 nM, 94 nM and 4.6 ± 0.1 nM, respectively.
Turning to `CC(C)ON([C@H](CCNS(C)(=O)=O)C(=O)NO)S(=O)(=O)c1ccc(-c2ccccc2)cc1` [Compound 1c, (R)—N-hydroxy-2-(N-isopropoxybiphenyl-4-ylsulfonamido)-4-(methylsulfonamido)butanamide], the IC50 at MMP-2 is 0.98 ± 0.12 nM; at MMP-14, 95.5 ± 4.5 nM; against MMP-13 it was 2.2 ± 0.3 nM.
For `CC(=O)NCC[C@H](C(=O)NO)N(OC(C)C)S(=O)(=O)c1ccc(-c2ccccc2)cc1` [Compound 1d, (R)-4-acetamido-N-hydroxy-2-(N-isopropoxybiphenyl-4-ylsulfonamido)butanamide], in that order: 0.33 ± 0.02 nM, 41.1 ± 1.16 nM and 0.68 ± 0.1 nM.
For the compound `CC(C)ON([C@H](CCNC(=O)Cc1ccccc1)C(=O)NO)S(=O)(=O)c1ccc(-c2ccccc2)cc1` [Compound 1e, (R)—N-hydroxy-2-(N-isopropoxybiphenyl-4-ylsulfonamido)-4-(2-phenylacetamido)butanamide], the values for the IC50 against MMP-2, on MMP-14 and on MMP-13 were 1.43 ± 0.1 nM, 80.7 ± 5.4 nM and 1.4 ± 0.1 nM, respectively.
For `COc1ccc(-c2ccc(S(=O)(=O)N(OC(C)C)[C@H](CCNC(C)=O)C(=O)NO)cc2)cc1` [Compound 1f, (R)-4-acetamido-N-hydroxy-2-(N-isopropoxy-4′-methoxybiphenyl-4-ylsulfonamido)butanamide], in that order: 0.13 ± 0.03 nM, 23.5 ± 2.2 nM and 0.58 ± 0.04 nM.
With `COc1ccc(-c2ccc(S(=O)(=O)N(OC(C)C)[C@H](CCNC(=O)Cc3ccccc3)C(=O)NO)cc2)cc1` [Compound 1g, (R)—N-hydroxy-2-(N-isopropoxy-4′-methoxybiphenyl-4-ylsulfonamido)-4-(2-phenylacetamido)butanamide], the IC50 was 0.37 ± 0.06 nM against MMP-2, 24.7 ± 2.2 nM at MMP-14 and 0.25 ± 0.02 nM on MMP-13.
Take `COc1ccc(-c2ccc(S(=O)(=O)N(OCCOCCN3CCNCC3)[C@H](CCNC(=O)OCc3ccccc3)C(=O)NO)cc2)cc1` [Compound 1j]: the IC50 at MMP-2 was found to be 0.3 ± 0.03 nM; at MMP-14, 27 ± 1 nM; against MMP-13, 0.2 ± 0.01 nM.
Regarding `COc1ccc(-c2ccc(S(=O)(=O)N(OC(C)C)[C@H](CCN3C(=O)c4ccccc4C3=O)C(=O)NO)cc2)cc1` [Compound 2, (R)-4-(1,3-dioxoisoindolin-2-yl)-N-hydroxy-2-(N-isopropoxy-4′-methoxybiphenyl-4-ylsulfonamido)butanamide], the “inhibitory activity on endothelial cell migration through a reconstituted basement membrane” value in the test on HUVEC [1] is listed as “significant inhibitory activity”. Further, in the test with HUVEC [2] (10 and 100 μM, 24, 48 and 72 hrs), the “cell growth inhibition as compared to untreated controls” value is “time and dose dependent cell growth inhibition”. In addition, the inhibition at 100 µM in the test on HUVEC [2] (Homo sapiens, 100 μM, starting from 48 hours of treatment, read-out: cell growth inhibition) came to 100%. Further, the IC50 against MMP-2 amounted to 0.67 ± 0.06 nM; against MMP-14, 3.9 ± 0.18 nM; at MMP-13, 0.19 ± 0.01 nM. In addition, in the test with HUVEC [3] (at 48 hours), the “induction of programmed cell death” value is reported as “ability to induce programmed cell death”. The pro-apoptotic activity entry in the test on HUVEC [3] (high dose (100 μM)) is recorded as “some pro-apoptotic activity”.
Regarding `CC(C)ON([C@H](CCNC(=O)OCc1ccccc1)C(=O)NO)S(=O)(=O)c1ccc(-c2ccccc2)cc1` [Reference Compound (5b), reference compound], the figures for the IC50 on MMP-2, against MMP-14 and at MMP-13 were 8.4 ± 0.1 nM, 240 ± 19 nM and 4.4 ± 0.5 nM, respectively.
